From patent US5948635A, “Totally Synthetic Affinity Reagents” (University of North Carolina at Chapel Hill, priority 1995, dated 1999)

Columns and labels:
streptavidin = target: T1, streptavidin (Streptomyces avidinii, UniProt P22629); test: Inhibition of TSAR binding to streptavidin by biotin and biotin analogs; settings: for IC50: representative TSARs SA-1, -2, -4 and -14
T1 construct: purchased Advanced Magnetics, Cambridge, Mass
Experimental: Specificity of the binding of the identified proteins for streptavidin was investigated by evaluating inhibition of binding by biotin and by a number of biotin analogs, including diaminobiotin, immunobiotin, lipoic acid and imidazalidone. Four representative TSARs, pictured in Table 9, were evaluated, i.e., SA-1,-2, -4 and -14 (SEQ ID NOs. 116, 114, 104 and 117).

[1] = Immobilized metal affinity chromatography of phage on Zn(II)-IDA; format: binding; settings: for relative retention by Zn(II)-IDA: comparison of four clones
Experimental: The TSAR-9 random peptide library was subjected to IMAC chromatography as follows: 0.5 ml bed volume iminodiacetic acid (IDA) Sepharose (Sigma Chemical Co.) columns were washed with 1 ml of sterile doubly distilled (dd) H2 O, charged with 5 ml of 10 mM ZnCl2 in dd H2 O followed by 3 ml sterile dd H2 O and equilibrated with 10 ml 10 mM Tris-HCl, 150 mM NaCl, 0.1% Tween-20, pH 7.5 (T10NT) to prepare the Zn(II) IDA column. 10^12 pfu of the TSAR-9 random peptide library were passed over the Zn(II) IDA column and washed with 10 ml T10NT. Bound phage were eluted with 500 μl 200 mM glycine-HCl, pH 2.2 and the pH was then neutralized with 500 μl 1 M phosphate buffer, pH 7.5+1 ml T10NT. Eluted phage were subjected to two further rounds of selection and the resulting population was amplified by overnight growth on a lawn of E. coli DH5αF'.
To quantitate the relative binding of the Zn(II)-IDA selected TSARs, each TSAR encoding phage was chromatographed over Zn(II)-IDA. Three fractions were collected and titered for phage: wash (unbound), elution (bound, eluted), and column (bound, not eluted).
The binding specificity of a number of the identified Zn-binding proteins was evaluated by chromatography using IDA columns charged with Zn^+2, Cu^+2 or Ni^+2. A particular Zn-binding phage (10×10^11 pfu) in 1 ml of 100 mM Tris-HCl, 150 mM NaCl, 0.1% Tween-20, pH 7.5 (T100NT) was loaded onto a Zn(II)-, Cu(II)- or Ni(II)-IDA column and the columns were washed as described above, except that T100NT was substituted for T10NT. The columns were eluted with acid; Zn^+2 (2 ml 100 mM ZnCl2 in T1OONT, pH 7.5), or imidazole (2 ml 100 mM imidazole in T100NT, pH 7.5). Three fractions were collected and titered for the presence of phage: the wash fraction (.box-solid.), the elution fraction and the metal II-IDA column matrix resuspended in T10NT (.quadrature.).Results obtained are shown in FIG. 16 A and B.

C46 monoclonal antibody = test: Competition of CEA with phage for binding to immobilized C46 antibody; parameters: species or system mouse; settings: CEA 1, 25, 250, 2500 ng; FIG. 17
Experimental: Microtiter dish wells were coated with 50 μl of the C46 monoclonal antibody (5 μg/ml in 100 mM NaHCO3, pH 8.5) for 2 hr at 4° C. To the wells, 50 μl of BSA (1 mg/ml in 100 mM NaHCO3, pH 8.5) were added and the wells incubated for 30 min. at room temperature. The wells were washed (5×) with PBS-0.05% Tween 20.
To each well was added either 25 μl of C46-binding phage (C46.9-1 or C46.9-2) and increasing amounts of highly purified CEA (1, 25, 250, 2500 ng) (Scripps Clinic). After 2 hr incubation at room temperature, the wells were washed (10×) with PBS-0.05% Tween 20. 25 μl of 200 mM glycine-HCl (pH 2.2) were then added to the wells and they were incubated at room temperature for 5 min. The liquid was then transferred to new microtiter dish wells that contained 50 μl of 1M NaHPO4. The contents of the well were then serially diluted and aliquots were plated to count plaques.

7E11-C5 antibody = test: Relative affinity: phage binding to microtiter plates coated with differing amounts of 7E11-C5; parameters: species or system mouse; settings: plates coated with 0, 4, 20, 100 and 500 ng antibody
Experimental: The relative affinity of the different 7E11-C5 binding TSARs for the 7E11-C5 antibody was compared. Microtiter plates were coated with differing amounts of the antibody (i.e., 0, 4, 20, 100 and 500 ng) prior to phage binding. Our prediction was that the TSAR with the highest affinity for the antibody would still bind effectively to wells coated with lower amounts of antibody. […] These TSARs all have Y as the second amino acid in the motif. The next class of TSARs bound ~2-fold less well; as represented by 12-2, which also had Y as the second amino acid. Three TSARs bound 5-10 fold less well than the best binders as represented by 9-2, 9-4, and 12-4; their inserts had W or H at the second position of the motif. Finally, TSAR 12-3 bound 50-fold less well than the best binders; this TSAR has I and R in the second and sixth positions, respectively. Thus, it seems that the 7E11-C5 epitope can be mimicked by a linear peptide sequence that has both variant and invariant residues.

[2] = system: 7E11-C5 monoclonal antibody; test: Competitive binding ELISA: inhibition of 7E11-C5 binding to LNCaP cell lysate antigen; parameters: species or system mouse; settings: for inhibition of 7E11-C5 binding to its antigen by phage: phage 6.3×10^7 to 6.3×10^11 pfu, 7E11-C5 30 ng/ml
Experimental: Each well of a polyvinylchloride 96-well ELISA plate (Cooke, Alexandria, Va.) was coated with an LNCAP human prostate carcinoma cell (ATCC # CRL 1740) lysate. Lysates were prepared by harvesting confluent LNCaP cell cultures, resuspending cells in 4 volumes of 1 mM MgCl2 for 5 minutes, mixing with 2 μg of DNase (Boehringer Mannheim, Indianapolis, Ind.) and homogenizing using 40 strokes in a Dounce homogenizer (Wheaton, Millville, N.J.). LNCaP lysate (50 μl per well of a 1:50 dilution in 0.1×PBS [Dulbecco's pH 7.2, JRH, Denver, Pa.]) was air dried overnight at 37° C. onto wells of the ELISA plate. ELISA plates were blocked with 150 μl/well of 1% BSA (Pentex Fraction V, Miles, Kankakee, Ill.) in PBS for 60 minutes at room temperature.
The blank control consisted of blocking solution in the absence of primary antibody. 7E11-C5 monoclonal antibody pre-incubated with buffer without any phage (MAb) was the positive control. The expression vector m663 phage was also employed as a non-specific phage control.
Plates were washed 4 times with 0.05% Tween-20 in PBS. Bound monoclonal antibody 7E11-C5 was detected by: (1) incubating with 50 μl/well of anti-mouse IgG1 -HRP (Fisher Biotech, Orangeburg, N.Y.) diluted to 0.4 ng/ml in 1% BSA-PBS, for 60 minutes at room temperature; (2) washing plates 6 times with 0.05% Tween-20 in PBS; and (3) adding 100 μl/well ABTS substrate [200 μl ABTS, (Boehringer Mannheim), 10 ml citrate buffer (pH 4), 10 μl H2 O2 ]. Optical density of the reactions products was determined by endpoint analysis on a Multiscan plate reader (Molecular Devices, Menlo Park, Calif.). The competitive inhibition (%) was determined by comparing the reactivity of the positive control to the test samples.
(§1) The TSAR-based peptide (SEQ ID NO 31) concentration ranged from 1.75 to 1130 nM. […] Two additional control peptides (amide form) having the following amino acid sequences: RGD-21: NH2 -[…]-CONH2 (SEQ ID NO 32) and CYT-379: NH2 -[…]-CONH2 (SEQ ID NO 33) were also evaluated. Herein these control peptides are referred to as Control Peptide 1 and Control Peptide 2. […] The B139 monoclonal antibody, which is a murine IgG1 monoclonal antibody that reacts with all human epithelial cells, recognizes a different antigen in the LNCaP extract from that recognized by the 7E11-C5 antibody. The control B139 monoclonal antibody was used at a concentration of 9 ng/ml. The results obtained are illustrated in FIG. 13.

[3] = system: 7E11-C5 monoclonal antibody; test: ELISA of antibody binding to immobilized peptide; parameters: species or system mouse; settings: peptide adsorbed on polyvinylchloride plates, 0.5-500 μg/ml; FIG. 14, 15
Experimental: (§2) Peptides, diluted in 10% PBS (Dulbecco's, pH 7.2, Hazelton), were immobilized by adsorption on polyvinylchloride plates. SEQ ID NO 31 (amide form) was diluted in 10% PBS at 0.5, 5, 50 or 500 μg/ml. Control peptide 2 in 10% PBS at the same range of concentrations served as the control. A 50 μl volume of the test or control peptide solution was added to each well and incubated overnight at 4° C. The peptide solution was removed and 10% BSA-PBS was added as blocking solution. […] Bound 7E11-C5 monoclonal antibody was detected with anti-mouse IgG1 -HRP as described above herein.

B139 monoclonal antibody [4] = test: ELISA of control antibody binding to immobilized peptide; parameters: species or system murine; settings: peptide coated at 5 μg/ml; FIG. 15
Experimental: as §2

B139 monoclonal antibody [5] = test: Competitive binding ELISA: inhibition of B139 binding to LNCaP extract; parameters: species or system murine; settings: B139 9 ng/ml; FIG. 13
Experimental: as §1

T1 sequence (P22629 25-183): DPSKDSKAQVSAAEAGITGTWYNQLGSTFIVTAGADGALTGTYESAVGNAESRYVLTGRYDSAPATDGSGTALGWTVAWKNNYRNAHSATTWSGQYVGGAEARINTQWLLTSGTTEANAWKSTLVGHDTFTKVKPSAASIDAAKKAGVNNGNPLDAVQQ

O=C(O)CCCC[C@@H]1CCSS1 (racemic) [lipoic acid]
IC50 (streptavidin): ~1050 µM

N[C@@H]1[C@H](CCCCC(=O)O)SC[C@@H]1N [diaminobiotin]
IC50 (streptavidin): ~0.2 µM

N=C1N[C@H]2[C@H](CS[C@H]2CCCCC(=O)O)N1 [immunobiotin]
IC50 (streptavidin): ~3 µM

ATEQHYWTQYHKPYHPSVPGFHVKSVTETTDHWESRNG [Zn1B8]
relative retention by Zn(II)-IDA [1]: exhibit the least retention | retention on Zn(II)-IDA, of recovered phage [1]: 85%

CNFRGQCVSAPQTSNSKSPGWDTTWHDFRKEQFYNLTS [C46-9.2]
competition with CEA for binding to the C46 antibody (C46 monoclonal antibody): competitive binding

FDHTYSGPVCVKNGGLVSPGVLS MYNRLH SDGGPSLAS [7E11.9-3]
relative binding to 7E11-C5 (fold less well than the best binders) (7E11-C5 antibody): bound the best

HSYHDVATTKPGSHCMHNPGHPPPPNCHMAKAHSHNRI [Zn1A12]
relative retention by Zn(II)-IDA [1]: exhibit the least retention

IAHRVVAYNSLDSNPIWLPGEESSSVFGDY HPMF RAPV [SA-4]
inhibition of TSAR binding to streptavidin by biotin and all the biotin analogs tested (streptavidin): completely inhibited

IDMPETAST MYNMLH RNEPGGRKLSPPANDMPPALLKR [7E11.9-5]
inhibition of 7E11-C5 binding to its antigen by phage [2]: inhibited the binding of 7E11-C5 monoclonal antibody to its antigen, in a dose dependent fashion | relative binding to 7E11-C5 (fold less well than the best binders) (7E11-C5 antibody): bound the best

NAVRVDSGYPPNPNTFHLPGCIDVLSSGCRLFSAHSEY [C46-9.1]
competition with CEA for binding to the C46 antibody (C46 monoclonal antibody): competitive binding

NH2 -SYGRGDVRGDFKCTCCA-CONH2 (H-SYGRGDVRGDFKCTCCA-NH2; cysteine pairing not given here) [Control Peptide 2]
competitive inhibition of 7E11-C5 binding to LNCaP extract by peptide ([2]; peptides, amide form, FIG. 13): did not effectively compete | binding of 7E11-C5 to immobilized peptide [3]: did not bind to either of the tested antibodies | binding of B139 to immobilized peptide (B139 monoclonal antibody [4]): did not bind to either of the tested antibodies | competitive inhibition of B139 binding to LNCaP extract by peptide (B139 monoclonal antibody [5]): neither SEQ ID NO 31 (amide form) nor either of Control Peptide 1 and Control Peptide 2 competitively inhibited the binding

PDYDLMSSTCRFYGCSKMPGGVAVNGLFAVQGHSKYSS [SA-1]
inhibition of TSAR binding to streptavidin by biotin and all the biotin analogs tested (streptavidin): completely inhibited

PVQKEYGFFMSGAS MIRLLR ETP [7E11.12-3]
relative binding to 7E11-C5 (fold less well than the best binders) (7E11-C5 antibody): 50 fold

QKGGPGLLLYGGDS MWITLH EPG [7E11.12-4]
relative binding to 7E11-C5 (fold less well than the best binders) (7E11-C5 antibody): 5-10 fold

RDSAVENPSVGGEIP MYRYLH QR [7E11.12-2]
relative binding to 7E11-C5 (fold less well than the best binders) (7E11-C5 antibody): ~ 2 fold

RLGNVWRVEGGG MYQQLH HNFPX^2 [7E11.12-1]
inhibition of 7E11-C5 binding to its antigen by phage [2]: inhibited the binding of 7E11-C5 monoclonal antibody to its antigen, in a dose dependent fashion | relative binding to 7E11-C5 (fold less well than the best binders) (7E11-C5 antibody): bound the best

SSCAYARYVPLLLLLYANPG MYSRLH SPAVRPLTQSSA [7E11.9-1]
inhibition of 7E11-C5 binding to its antigen by phage [2]: also inhibited 7E11-C5 monoclonal antibody binding | relative binding to 7E11-C5 (fold less well than the best binders) (7E11-C5 antibody): bound the best

SVQFKSISSRSMDDVVKDPGPKPA MWKMLH SKNPFTLS [7E11.9-2]
relative binding to 7E11-C5 (fold less well than the best binders) (7E11-C5 antibody): 5-10 fold

TVAT MHDTLH SAPGSGNLPGSYDIKPIFKASGALHSTX^2 [7E11.9-4]
relative binding to 7E11-C5 (fold less well than the best binders) (7E11-C5 antibody): 5-10 fold

YDHHSYNGDMHYPGWPPLPGPHHFAPIDVTTHSHTQPD [Zn1A1]
retention on Zn(II)-IDA, of recovered phage [1]: 15%

imidazalidone
IC50 (streptavidin): ~5000 µM
